Experimental data taken from US20240277754A1, “IMMUNO-ONCOLOGY THERAPEUTIC COMPOSITION USING ADJUVANT INCLUDING LIPOPEPTIDES AND POLY (I:C)” (CHA VACCINE RESEARCH INSTITUTE CO., LTD, priority 2021, published 2024).

Tested on: MC38 mouse colon cancer cells
Assay: Tumor suppressive efficacy in combination with other TLR ligands or saponin, colon cancer mouse model
Format: in vivo, C57BL/6 mice
Conditions: L-pampo 45 μg/dose, QS21 10 μg/dose, Imiquimod 10 μg/dose, intratumoral four times at 3-day intervals, D20, 12 days after start
Procedure: Tumors were generated in mice by subcutaneous injection of 1×10^5 MC38 mouse colon cancer cells into the right flank of 8-week-old female C57BL/6 mice (OrientBio, Korea). The immuno-oncology drug L-pampo was prepared by mixing 25 μg of Pam3CSK4 and 20 μg of poly(I:C). […] This was administered into the tumor four times at 3-day intervals. Tumor sizes for all experimental groups were measured every three days. The long and short axes of the tumor were measured, and the size of the tumor was calculated as [½×size of the long axis×(size of the short axis)^2]. The tumor suppressive efficacy was analyzed based on the calculated tumor size.

| Compound | size of the tumor reduced compared to negative control (buffer) |
| --- | --- |
| CC(C)Cn1cnc2c(N)nc3ccccc3c21 [imiquimod] | about 39% |
| QS-21 | about 57% |
